Tests used:
[1] = test system: mice; conditions: IP, cited from earlier work
[2] = test system: Xenopus feeding stage tadpoles; test: Toxicity in Xenopus feeding stage tadpoles; type: in vivo; conditions: 400 nM HF, 7 days
Protocol: At concentrations over 80 nM, HF has a variety of non-specific effects on both T-cells and fibroblasts. […] At the recommended tolerated dose for chronic treatment (0.5 mg/day), plasma levels of HF were ˜0.5 ng/ml (1 nM). (de.Jonge et al., Eur J Cancer, vol. 42(12):1768-74 (2006)).

[3] = test system: CD4+ CD25− T cells activated in Th17-priming conditions; type: cell-based, mouse; conditions: 10 nM HF vs MAZ1310, mean ± SD, triplicate

Structure (SMILES): O=C(CC1NCCCC1O)Cn1cnc2cc(Br)c(Cl)cc2c1=O (racemic) [HF, 7-bromo-6-chloro-3-[3-(3-hydroxy-2-piperidinyl)-2-oxopropyl]-4(3H)-quinazolinone]
- radiation induced fibrosis, in words ([1]; 1-5 μg/mouse (Xavier et al.)): prevented radiation induced fibrosis but not normal healing of irradiated tissue
- toxic effect in mice, in words ([1]; 1-5 μg/mouse): without evident toxic effect
- toxic effects in tadpoles, in words [2]: does not have detectable toxic effects
- Aars transcript, fold increase HF vs. MAZ1310-3 hr ([3]; 3 hr): 2.7 ± 0.4 fold
- Aff1 transcript, fold increase HF vs. MAZ1310-3 hr ([3]; 3 hr): 2.3 ± 0.4 fold
- Aldh18a1 transcript, fold increase HF vs. MAZ1310-3 hr ([3]; 3 hr): 2.1 ± 0.5 fold
- Asns transcript, fold increase HF vs. MAZ1310-3 hr ([3]; 3 hr): 6.1 ± 1.2 fold
- Atf3 transcript, fold increase HF vs. MAZ1310-3 hr ([3]; 3 hr): 3.0 ± 0.1 fold
- Atf5 transcript, fold increase HF vs. MAZ1310-3 hr ([3]; 3 hr): 2.4 ± 0.1 fold
- Cars transcript, fold increase HF vs. MAZ1310-3 hr ([3]; 3 hr): 2.2 ± 0.4 fold
- Cd274 transcript, fold increase HF vs. MAZ1310-3 hr ([3]; 3 hr): 2.1 ± 0.2 fold
- Cebpb transcript, fold increase HF vs. MAZ1310-3 hr ([3]; 3 hr): 3.9 ± 0.6 fold
- Cebpg transcript, fold increase HF vs. MAZ1310-3 hr ([3]; 3 hr): 2.5 ± 0.5 fold
- Chd2 transcript, fold increase HF vs. MAZ1310-3 hr ([3]; 3 hr): 2.2 ± 0.3 fold
- Cldn12 transcript, fold increase HF vs. MAZ1310-3 hr ([3]; 3 hr): 3.2 ± 0.7 fold
- Clic4 transcript, fold increase HF vs. MAZ1310-3 hr ([3]; 3 hr): 2.4 ± 0.2 fold
- Cth transcript, fold increase HF vs. MAZ1310-3 hr ([3]; 3 hr): 2.2 ± 0.7 fold
- Cxcl10 transcript, fold increase HF vs. MAZ1310-3 hr ([3]; 3 hr): 2.1 ± 0.3 fold
- D8Ertd56e transcript, fold increase HF vs. MAZ1310-3 hr ([3]; 3 hr): 2.1 ± 0.3 fold
- Ddit3 transcript, fold increase HF vs. MAZ1310-3 hr ([3]; 3 hr): 5.6 ± 1.1 fold
- Et4Ebp1 transcript, fold increase HF vs. MAZ1310-3 hr ([3]; 3 hr): 6.8 ± 1.8 fold
- Gpt2 transcript, fold increase HF vs. MAZ1310-3 hr ([3]; 3 hr): 10.0 ± 1.2 fold
- Herpud1 transcript, fold increase HF vs. MAZ1310-3 hr ([3]; 3 hr): 2.4 ± 0.3 fold
- Icam1 transcript, fold increase HF vs. MAZ1310-3 hr ([3]; 3 hr): 2.0 ± 0.1 fold
- Irf1 transcript, fold increase HF vs. MAZ1310-3 hr ([3]; 3 hr): 2.0 ± 0.3 fold
- Lers transcript, fold increase HF vs. MAZ1310-3 hr ([3]; 3 hr): 2.3 ± 0.3 fold
- Mpa2l transcript, fold increase HF vs. MAZ1310-3 hr ([3]; 3 hr): 2.3 ± 0.3 fold
- Ncoa7 transcript, fold increase HF vs. MAZ1310-3 hr ([3]; 3 hr): 3.0 ± 0.3 fold
- Nfkbiz transcript, fold increase HF vs. MAZ1310-3 hr ([3]; 3 hr): 2.0 ± 0.3 fold
- Past1 transcript, fold increase HF vs. MAZ1310-3 hr ([3]; 3 hr): 2.1 ± 0.5 fold
- Pck2 transcript, fold increase HF vs. MAZ1310-3 hr ([3]; 3 hr): 4.9 ± 0.8 fold
- Pdcd1lg2 transcript, fold increase HF vs. MAZ1310-3 hr ([3]; 3 hr): 3.2 ± 0.7 fold
- Phgdh transcript, fold increase HF vs. MAZ1310-3 hr ([3]; 3 hr): 3.8 ± 0.9 fold
- Psph transcript, fold increase HF vs. MAZ1310-3 hr ([3]; 3 hr): 3.5 ± 0.4 fold
- Pvr transcript, fold increase HF vs. MAZ1310-3 hr ([3]; 3 hr): 2.0 ± 0.3 fold
- Pycr1 transcript, fold increase HF vs. MAZ1310-3 hr ([3]; 3 hr): 4.6 ± 0.7 fold
- Pycs transcript, fold increase HF vs. MAZ1310-3 hr ([3]; 3 hr): 2.1 ± 0.2 fold
- Sars1 transcript, fold increase HF vs. MAZ1310-3 hr ([3]; 3 hr): 2.0 ± 0.3 fold
- Sesn2 transcript, fold increase HF vs. MAZ1310-3 hr ([3]; 3 hr): 2.6 ± 0.3 fold
- Slamf7 transcript, fold increase HF vs. MAZ1310-3 hr ([3]; 3 hr): 2.2 ± 0.4 fold
- Slc1a4 transcript, fold increase HF vs. MAZ1310-3 hr ([3]; 3 hr): 3.2 ± 0.9 fold
- Slc6a9 transcript, fold increase HF vs. MAZ1310-3 hr ([3]; 3 hr): 2.4 ± 0.3 fold
- Slc7a3 transcript, fold increase HF vs. MAZ1310-3 hr ([3]; 3 hr): 2.0 ± 0.2 fold
- Slc14a1 transcript, fold increase HF vs. MAZ1310-3 hr ([3]; 3 hr): 2.0 ± 0.1 fold
- Trib3 transcript, fold increase HF vs. MAZ1310-3 hr ([3]; 3 hr): 7.1 ± 2.0 fold
- Trim12 transcript, fold increase HF vs. MAZ1310-3 hr ([3]; 3 hr): 2.4 ± 0.1 fold
- Vegfa transcript, fold increase HF vs. MAZ1310-3 hr ([3]; 3 hr): 3.2 ± 0.2 fold
- Xist transcript, fold increase HF vs. MAZ1310-3 hr ([3]; 3 hr): 3.5 ± 1.7 fold
- Aars transcript, fold increase HF vs. MAZ1310-6 hr ([3]; 6 hr): 2.6 ± 0.2 fold
- Aff1 transcript, fold increase HF vs. MAZ1310-6 hr ([3]; 6 hr): 2.6 ± 0.3 fold
- Aldh18a1 transcript, fold increase HF vs. MAZ1310-6 hr ([3]; 6 hr): 2.7 ± 0.2 fold
- Asns transcript, fold increase HF vs. MAZ1310-6 hr ([3]; 6 hr): 7.1 ± 0.5 fold
- Atf3 transcript, fold increase HF vs. MAZ1310-6 hr ([3]; 6 hr): 3.2 ± 0.5 fold
- Atf5 transcript, fold increase HF vs. MAZ1310-6 hr ([3]; 6 hr): 8.9 ± 1.0 fold
- Cars transcript, fold increase HF vs. MAZ1310-6 hr ([3]; 6 hr): 2.2 ± 0.3 fold
- Cd274 transcript, fold increase HF vs. MAZ1310-6 hr ([3]; 6 hr): 2.0 ± 0.1 fold
- Cebpb transcript, fold increase HF vs. MAZ1310-6 hr ([3]; 6 hr): 8.0 ± 0.2 fold
- Cebpg transcript, fold increase HF vs. MAZ1310-6 hr ([3]; 6 hr): 3.1 ± 0.5 fold
- Chd2 transcript, fold increase HF vs. MAZ1310-6 hr ([3]; 6 hr): 2.5 ± 0.5 fold
- Cldn12 transcript, fold increase HF vs. MAZ1310-6 hr ([3]; 6 hr): 4.6 ± 0.5 fold
- Clic4 transcript, fold increase HF vs. MAZ1310-6 hr ([3]; 6 hr): 2.8 ± 0.2 fold
- Cth transcript, fold increase HF vs. MAZ1310-6 hr ([3]; 6 hr): 16.0 ± 1.6 fold
- Cxcl10 transcript, fold increase HF vs. MAZ1310-6 hr ([3]; 6 hr): 2.1 ± 0.1 fold
- D8Ertd56e transcript, fold increase HF vs. MAZ1310-6 hr ([3]; 6 hr): 3.1 ± 0.8 fold
- Ddit3 transcript, fold increase HF vs. MAZ1310-6 hr ([3]; 6 hr): 5.0 ± 0.7 fold
- Et4Ebp1 transcript, fold increase HF vs. MAZ1310-6 hr ([3]; 6 hr): 5.3 ± 0.3 fold
- Gpt2 transcript, fold increase HF vs. MAZ1310-6 hr ([3]; 6 hr): 16.7 ± 2.2 fold
- Herpud1 transcript, fold increase HF vs. MAZ1310-6 hr ([3]; 6 hr): 2.7 ± 0.1 fold
- Icam1 transcript, fold increase HF vs. MAZ1310-6 hr ([3]; 6 hr): 2.8 ± 0.3 fold
- Irf1 transcript, fold increase HF vs. MAZ1310-6 hr ([3]; 6 hr): 2.6 ± 0.2 fold
- Lers transcript, fold increase HF vs. MAZ1310-6 hr ([3]; 6 hr): 2.1 ± 0.0 fold
- Mpa2l transcript, fold increase HF vs. MAZ1310-6 hr ([3]; 6 hr): 7.3 ± 1.7 fold
- Ncoa7 transcript, fold increase HF vs. MAZ1310-6 hr ([3]; 6 hr): 3.2 ± 0.5 fold
- Nfkbiz transcript, fold increase HF vs. MAZ1310-6 hr ([3]; 6 hr): 1.9 ± 0.3 fold
- Past1 transcript, fold increase HF vs. MAZ1310-6 hr ([3]; 6 hr): 2.6 ± 0.0 fold
- Pck2 transcript, fold increase HF vs. MAZ1310-6 hr ([3]; 6 hr): 7.4 ± 0.9 fold
- Pdcd1lg2 transcript, fold increase HF vs. MAZ1310-6 hr ([3]; 6 hr): 2.5 ± 0.3 fold
- Phgdh transcript, fold increase HF vs. MAZ1310-6 hr ([3]; 6 hr): 4.2 ± 0.3 fold
- Psph transcript, fold increase HF vs. MAZ1310-6 hr ([3]; 6 hr): 3.4 ± 0.3 fold
- Pvr transcript, fold increase HF vs. MAZ1310-6 hr ([3]; 6 hr): 2.0 ± 0.1 fold
- Pycr1 transcript, fold increase HF vs. MAZ1310-6 hr ([3]; 6 hr): 6.6 ± 0.4 fold
- Pycs transcript, fold increase HF vs. MAZ1310-6 hr ([3]; 6 hr): 2.3 ± 0.1 fold
- Sars1 transcript, fold increase HF vs. MAZ1310-6 hr ([3]; 6 hr): 2.3 ± 0.1 fold
- Sesn2 transcript, fold increase HF vs. MAZ1310-6 hr ([3]; 6 hr): 2.3 ± 0.2 fold
- Slamf7 transcript, fold increase HF vs. MAZ1310-6 hr ([3]; 6 hr): 2.1 ± 0.2 fold
- Slc1a4 transcript, fold increase HF vs. MAZ1310-6 hr ([3]; 6 hr): 4.6 ± 0.4 fold
- Slc6a9 transcript, fold increase HF vs. MAZ1310-6 hr ([3]; 6 hr): 5.7 ± 0.6 fold
- Slc7a3 transcript, fold increase HF vs. MAZ1310-6 hr ([3]; 6 hr): 6.5 ± 0.9 fold
- Slc14a1 transcript, fold increase HF vs. MAZ1310-6 hr ([3]; 6 hr): 6.6 ± 0.4 fold
- Trib3 transcript, fold increase HF vs. MAZ1310-6 hr ([3]; 6 hr): 18.5 ± 8.5 fold
- Trim12 transcript, fold increase HF vs. MAZ1310-6 hr ([3]; 6 hr): 4.9 ± 0.7 fold
- Vegfa transcript, fold increase HF vs. MAZ1310-6 hr ([3]; 6 hr): 5.8 ± 0.5 fold
- Xist transcript, fold increase HF vs. MAZ1310-6 hr ([3]; 6 hr): 2.1 ± 0.7 fold

Source: US20110212100A1, “METHODS FOR MODULATING DEVELOPMENT AND EXPANSION OF IL-17 EXPRESSING CELLS” (priority 2007, published 2011)
